Laboratory results reported in article PMC5640902, “Monitoring multiple myeloma by idiotype-specific peptide binders of tumor-derived exosomes” (Molecular Cancer, 2017).
Positions of bridges follow the written chain, without caps; N, C: chain ends. No end group written: not given here.

Legend:
polyclonal mouse Igs = experiment: ELISA binding of biotinylated peptide to control polyclonal mouse Igs; details: biotinylated-p5 peptide, Fig. 2a
Experimental: (§1) Single strand DNA (ssDNA) was extracted from the selected phage clones by phenol/chlorophorm purification followed by ethanol precipitation. DNA fragment codifying the peptide ligand was amplified by PCR and sequenced to get the primary structure of amino acid sequence for the peptide synthesis. Synthesized peptides were purchased from Caslo Laboratory ApS [Caslo, Kongens Lyngby, DE]. The specific binding of peptides to the 5T33MM sIgG was analyzed by ELISA, as follows. Streptavidin coated 96 well plates were washed extensively and supplemented with biotin-conjugated peptides by 1 h-incubation at 37 °C; then, after washing and blocking with blocking solution (1X PBS, 0.05% Tween-20, 5% milk), aliquots of 5T33MM sIgG (1 μg/ml in blocking buffer) were added overnight at 4 °C. Wells were extensively washed and coated with the anti-mouse IgG (Fc-specific) alkaline phosphatase-conjugated [Sigma Aldrich] for 1 h at 37 °C, incubated with the alkaline phosphatase substrate [Sigma Aldrich], and analyzed by an ELISA reader at 405 nm [Labsystems multiscan MS].
(§2) The random peptide insert was flanked by a pair of cysteines resulting in cyclized peptide exposed on M13 coat protein. After three rounds of affinity selection, single phage clones were purified and tested by enzyme-linked immunosorbent assay (ELISA) for binding to the 5T33MM Igs or control Igs, as previously described. […]

mIg-5T33MM = experiment: ELISA binding of biotin-conjugated Id-peptides to 5T33MM Ig (Scatchard plot analysis); set-up: species or system murine; details: biotinylated-p5 peptide at different concentrations; Fig. 2a
Experimental: as §1, §2

A20-derived exosomes = experiment: Exosome immunocapture (anti-CD63 SMNPs) and flow cytometry, A20-derived exosomes; assay type: binding, murine; details: exosomes trapped on anti-CD63 SMNPs; FITC-conjugated p5 peptide; Fig. 4
Experimental: (§3) Exosomes were isolated from 250 μL of blood and 10 mL of cell supernatant respectively using ExoQuick solutions [System Biosciences – SBI, Palo Alto, California, US] and ExoQuick-TC™ [System Biosciences], according to the manufacturer’s protocol. Briefly, serum and cell supernatants were centrifuged at 3000×g for 15 min to remove cells and cell debris. The supernatant was transferred to a sterile vessel and the recommended volume of ExoQuick solution or ExoQuick-TC™ were added to the bio-fluids. After brief vortex, samples were stored 30 min at 4 °C and then centrifuged at 1500 x g for 30 min at room temperature. After removing the supernatant, the pellet was suspended in nuclease-free water.
(§4) Isolated exosomes from serum or cell supernatants were suspended in 1 ml of 1X PBS. Exosome aliquots (500 μl) were labeled with 50 μl of 10X Exo-Red [SBI] according to manufacturer’s instructions. The exosomes were re-isolated using the addition of 100 μl ExoQuick followed by precipitation for 30 min at +4 °C. The labeled exosome pellet was suspended in 500 μl 1X PBS and stained with CD63-coupled magnetic beads provided by SBI’s Exo-Flow IP kit [SBI] and with the FITC-conjugated peptides.

5T33MM cells [1] = experiment: Confocal microscopy of FITC-conjugated peptide co-localization with the BCR complex; assay type: cell-based, murine; details: FITC-conjugated p5 peptide, non-permeabilized cells, anti-mouse IgG co-staining; Fig. 2c
Experimental: (§5) Cultured 5T33MM, A20 and IM9 cells as well as primary B cells from MM patient and healthy donor were washed and suspended at the density of 10^6 cells/ml in FACs Flow Buffer [BD Biosciences]. All subsequent washing and incubations were carried out in the same buffer on ice. Cells were incubated with 20 μg/ml of FITC-conjugated peptides for 10 min on ice, then washed twice, and analyzed by flow cytometry [FACSCalibur, BD Biosciences]. For peptide co-localization with the BCR complex, 5T33MM cells (10^6 cells/ml) were stained with FITC-conjugated peptides [10 μg/ml) and goat anti-mouse IgG-Alexa fluor 568 [Thermo Fisher]. After extensive washing, cells were mounted under cover slip, and visualized by confocal microscopy [Leica TC-SP2].

A20 secreted IgG = experiment: ELISA binding of biotinylated peptide to control A20 secreted IgG; set-up: species or system murine; details: biotinylated-p5 peptide; control Ig; Fig. 2a
Experimental: as §1, §2

IM9-derived exosomes = experiment: Exosome immunocapture (anti-CD63 SMNPs) and flow cytometry, IM9-derived exosomes; assay type: binding, human; details: exosomes trapped on anti-CD63 SMNPs; FITC-conjugated p5 peptide; Fig. 4
Experimental: as §3, §4

5T33MM cells [2] = experiment: In vitro cell binding of FITC-conjugated peptides by flow cytometry; assay type: cell-based, murine; details: 10 min on ice, Fig. 2b
Experimental: as §5

5T33MM-derived exosomes = experiment: Exosome immunocapture (anti-CD63 SMNPs) and flow cytometry, 5T33MM-derived exosomes; assay type: binding, murine; details: exosomes from cell supernatant trapped on anti-CD63 SMNPs; FITC-conjugated reagent; Fig. 4
Experimental: as §3, §4

Row | Sequence | reactivity against polyclonal mouse Igs by ELISA (polyclonal mouse Igs) | reactivity to the cognate antibody (5T33MM-Igs) by ELISA (mIg-5T33MM) | detection of exosomes released from murine A20 B-lymphoma cells (A20-derived exosomes) | localization on 5T33MM cells by confocal microscopy (5T33MM cells [1]) | reactivity against A20 secreted IgG by ELISA (A20 secreted IgG) | detection of exosomes released from human IM9 multiple myeloma cells (IM9-derived exosomes) | recognition of 5T33MM target cells by flow cytometry (5T33MM cells [2]) | detection of 5T33MM-derived exosomes by flow cytometry (5T33MM-derived exosomes)
1 | CIGNSNTLC (disulfide 1-9 (inferred)) [p5, used biotinylated or FITC-conjugated] | did not react | concentration-dependent specific reactivity | did not detect | bound to the 5T33MM cell surface and also localized inside the cells | did not react | did not detect | recognized 5T33MM target cells in a dose-dependent manner | equally detected
2 | CGGNGPGLC [pCNT, irrelevant peptide (…) included as a negative control, FITC-conjugated, reference compound] | – | – | – | – | – | – | did not | undetected
